Reference: the NIST ThermoML archive (doi:10.1021/je400830w)
Numbers after ± are expanded uncertainties.

What was measured:
[1] = refractive index (Na D-line) (dimensionless); wn = mass fraction of the nth substance listed; conditions: 100 kPa, Liquid, Standard Abbe refractometry
[2] = wn = mass fraction of the nth substance listed; conditions: 100 kPa, Liquid; for mass density: Vibrating tube method

## O=C([O-])[C@@H]1CCCN1.[Na+] [sodium L-prolinate] + O
[1]; 298.15 K, w1 = 0.05
  refractive index: 1.34005 ± 0.00048
[1]; 298.15 K, w1 = 0.1
  refractive index: 1.34767 ± 0.00049
[1]; 298.15 K, w1 = 0.2
  refractive index: 1.36337 ± 0.0005
[1]; 298.15 K, w1 = 0.3
  refractive index: 1.37937 ± 0.00052
[1]; 298.15 K, w1 = 0.4
  refractive index: 1.39604 ± 0.00053
[1]; 303.15 K, w1 = 0.05
  refractive index: 1.33942 ± 0.00048
[1]; 303.15 K, w1 = 0.1
  refractive index: 1.34706 ± 0.00049
[1]; 303.15 K, w1 = 0.2
  refractive index: 1.36278 ± 0.0005
[1]; 303.15 K, w1 = 0.3
  refractive index: 1.37869 ± 0.00052
[1]; 303.15 K, w1 = 0.4
  refractive index: 1.39498 ± 0.00053
[1]; 308.15 K, w1 = 0.05
  refractive index: 1.33879 ± 0.00048
[1]; 308.15 K, w1 = 0.1
  refractive index: 1.34633 ± 0.00049
[1]; 308.15 K, w1 = 0.2
  refractive index: 1.36201 ± 0.0005
[1]; 308.15 K, w1 = 0.3
  refractive index: 1.37768 ± 0.00052
[1]; 308.15 K, w1 = 0.4
  refractive index: 1.39387 ± 0.00053
[1]; 313.15 K, w1 = 0.05
  refractive index: 1.33802 ± 0.00048
[1]; 313.15 K, w1 = 0.1
  refractive index: 1.3456 ± 0.00049
[1]; 313.15 K, w1 = 0.2
  refractive index: 1.36125 ± 0.0005
[1]; 313.15 K, w1 = 0.3
  refractive index: 1.37678 ± 0.00051
[1]; 313.15 K, w1 = 0.4
  refractive index: 1.39268 ± 0.00053
[1]; 318.15 K, w1 = 0.05
  refractive index: 1.33724 ± 0.00049
[1]; 318.15 K, w1 = 0.1
  refractive index: 1.34502 ± 0.00049
[1]; 318.15 K, w1 = 0.2
  refractive index: 1.36042 ± 0.0005
[1]; 318.15 K, w1 = 0.3
  refractive index: 1.37586 ± 0.00051
[1]; 318.15 K, w1 = 0.4
  refractive index: 1.39154 ± 0.00052
[1]; 323.15 K, w1 = 0.05
  refractive index: 1.33642 ± 0.00049
[1]; 323.15 K, w1 = 0.1
  refractive index: 1.34433 ± 0.00049
[1]; 323.15 K, w1 = 0.2
  refractive index: 1.35984 ± 0.0005
[1]; 323.15 K, w1 = 0.3
  refractive index: 1.37526 ± 0.00051
[1]; 323.15 K, w1 = 0.4
  refractive index: 1.39048 ± 0.00052
[1]; 328.15 K, w1 = 0.05
  refractive index: 1.33569 ± 0.00049
[1]; 328.15 K, w1 = 0.1
  refractive index: 1.34373 ± 0.00049
[1]; 328.15 K, w1 = 0.2
  refractive index: 1.35931 ± 0.0005
[1]; 328.15 K, w1 = 0.3
  refractive index: 1.37439 ± 0.0005
[1]; 328.15 K, w1 = 0.4
  refractive index: 1.38912 ± 0.00051
[1]; 333.15 K, w1 = 0.05
  refractive index: 1.33497 ± 0.00049
[1]; 333.15 K, w1 = 0.1
  refractive index: 1.34306 ± 0.00049
[1]; 333.15 K, w1 = 0.2
  refractive index: 1.35882 ± 0.0005
[1]; 333.15 K, w1 = 0.3
  refractive index: 1.37364 ± 0.0005
[1]; 333.15 K, w1 = 0.4
  refractive index: 1.38795 ± 0.00051
[1]; 338.15 K, w1 = 0.05
  refractive index: 1.33424 ± 0.0005
[1]; 338.15 K, w1 = 0.1
  refractive index: 1.34256 ± 0.0005
[1]; 338.15 K, w1 = 0.2
  refractive index: 1.35866 ± 0.0005
[1]; 338.15 K, w1 = 0.3
  refractive index: 1.37322 ± 0.00049
[1]; 338.15 K, w1 = 0.4
  refractive index: 1.38677 ± 0.0005
[1]; 343.15 K, w1 = 0.05
  refractive index: 1.33349 ± 0.00051
[1]; 343.15 K, w1 = 0.1
  refractive index: 1.34213 ± 0.0005
[1]; 343.15 K, w1 = 0.2
  refractive index: 1.35842 ± 0.0005
[1]; 343.15 K, w1 = 0.3
  refractive index: 1.37279 ± 0.00049
[1]; 343.15 K, w1 = 0.4
  refractive index: 1.38566 ± 0.00049
[2]; 298.15 K, w1 = 0.05
  mass density: 1015.28 ± 0.79 kg/m3
  viscosity: 1.16 ± 0.025 mPa·s
[2]; 298.15 K, w1 = 0.1
  mass density: 1033.9 ± 0.81 kg/m3
  viscosity: 1.456 ± 0.03 mPa·s
[2]; 298.15 K, w1 = 0.2
  mass density: 1071.61 ± 0.85 kg/m3
  viscosity: 2.292 ± 0.045 mPa·s
[2]; 298.15 K, w1 = 0.3
  mass density: 1109.81 ± 0.91 kg/m3
  viscosity: 3.787 ± 0.072 mPa·s
[2]; 298.15 K, w1 = 0.4
  mass density: 1148.69 ± 0.98 kg/m3
  viscosity: 5.56 ± 0.1 mPa·s
[2]; 303.15 K, w1 = 0.05
  mass density: 1013.73 ± 0.79 kg/m3
  viscosity: 1.02 ± 0.023 mPa·s
[2]; 303.15 K, w1 = 0.1
  mass density: 1032.18 ± 0.8 kg/m3
  viscosity: 1.267 ± 0.027 mPa·s
[2]; 303.15 K, w1 = 0.2
  mass density: 1069.51 ± 0.84 kg/m3
  viscosity: 1.967 ± 0.039 mPa·s
[2]; 303.15 K, w1 = 0.3
  mass density: 1106.73 ± 0.9 kg/m3
  viscosity: 3.327 ± 0.063 mPa·s
[2]; 303.15 K, w1 = 0.4
  mass density: 1145.79 ± 0.99 kg/m3
  viscosity: 4.801 ± 0.087 mPa·s
[2]; 308.15 K, w1 = 0.05
  mass density: 1011.98 ± 0.78 kg/m3
  viscosity: 0.9028 ± 0.021 mPa·s
[2]; 308.15 K, w1 = 0.1
  mass density: 1030.28 ± 0.8 kg/m3
  viscosity: 1.114 ± 0.025 mPa·s
[2]; 308.15 K, w1 = 0.2
  mass density: 1067.29 ± 0.83 kg/m3
  viscosity: 1.702 ± 0.035 mPa·s
[2]; 308.15 K, w1 = 0.3
  mass density: 1104.08 ± 0.9 kg/m3
  viscosity: 2.923 ± 0.055 mPa·s
[2]; 308.15 K, w1 = 0.4
  mass density: 1142.83 ± 0.98 kg/m3
  viscosity: 4.21 ± 0.076 mPa·s
[2]; 313.15 K, w1 = 0.05
  mass density: 1010.05 ± 0.78 kg/m3
  viscosity: 0.8062 ± 0.02 mPa·s
[2]; 313.15 K, w1 = 0.1
  mass density: 1028.22 ± 0.79 kg/m3
  viscosity: 0.984 ± 0.023 mPa·s
[2]; 313.15 K, w1 = 0.2
  mass density: 1064.94 ± 0.83 kg/m3
  viscosity: 1.482 ± 0.031 mPa·s
[2]; 313.15 K, w1 = 0.3
  mass density: 1101.95 ± 0.89 kg/m3
  viscosity: 2.509 ± 0.047 mPa·s
[2]; 313.15 K, w1 = 0.4
  mass density: 1139.8 ± 0.96 kg/m3
  viscosity: 3.53 ± 0.064 mPa·s
[2]; 318.15 K, w1 = 0.05
  mass density: 1007.96 ± 0.77 kg/m3
  viscosity: 0.7245 ± 0.019 mPa·s
[2]; 318.15 K, w1 = 0.1
  mass density: 1026.01 ± 0.78 kg/m3
  viscosity: 0.8784 ± 0.021 mPa·s
[2]; 318.15 K, w1 = 0.2
  mass density: 1062.47 ± 0.82 kg/m3
  viscosity: 1.309 ± 0.028 mPa·s
[2]; 318.15 K, w1 = 0.3
  mass density: 1099.31 ± 0.88 kg/m3
  viscosity: 2.193 ± 0.041 mPa·s
[2]; 318.15 K, w1 = 0.4
  mass density: 1136.71 ± 0.95 kg/m3
  viscosity: 2.997 ± 0.054 mPa·s
[2]; 323.15 K, w1 = 0.05
  mass density: 1005.72 ± 0.77 kg/m3
  viscosity: 0.6556 ± 0.018 mPa·s
[2]; 323.15 K, w1 = 0.1
  mass density: 1023.66 ± 0.78 kg/m3
  viscosity: 0.7874 ± 0.02 mPa·s
[2]; 323.15 K, w1 = 0.2
  mass density: 1059.89 ± 0.82 kg/m3
  viscosity: 1.164 ± 0.026 mPa·s
[2]; 323.15 K, w1 = 0.3
  mass density: 1096.7 ± 0.88 kg/m3
  viscosity: 1.94 ± 0.036 mPa·s
[2]; 323.15 K, w1 = 0.4
  mass density: 1133.56 ± 0.94 kg/m3
  viscosity: 2.581 ± 0.046 mPa·s
[2]; 328.15 K, w1 = 0.05
  mass density: 1003.32 ± 0.76 kg/m3
  viscosity: 0.5983 ± 0.017 mPa·s
[2]; 328.15 K, w1 = 0.1
  mass density: 1021.18 ± 0.78 kg/m3
  viscosity: 0.7118 ± 0.019 mPa·s
[2]; 328.15 K, w1 = 0.2
  mass density: 1057.21 ± 0.81 kg/m3
  viscosity: 1.038 ± 0.023 mPa·s
[2]; 328.15 K, w1 = 0.3
  mass density: 1092.78 ± 0.87 kg/m3
  viscosity: 1.69 ± 0.032 mPa·s
[2]; 328.15 K, w1 = 0.4
  mass density: 1130.34 ± 0.95 kg/m3
  viscosity: 2.241 ± 0.04 mPa·s
[2]; 333.15 K, w1 = 0.05
  mass density: 1000.79 ± 0.76 kg/m3
  viscosity: 0.5454 ± 0.017 mPa·s
[2]; 333.15 K, w1 = 0.1
  mass density: 1018.58 ± 0.77 kg/m3
  viscosity: 0.6471 ± 0.018 mPa·s
[2]; 333.15 K, w1 = 0.2
  mass density: 1054.42 ± 0.81 kg/m3
  viscosity: 0.9221 ± 0.022 mPa·s
[2]; 333.15 K, w1 = 0.3
  mass density: 1090.33 ± 0.86 kg/m3
  viscosity: 1.519 ± 0.029 mPa·s
[2]; 333.15 K, w1 = 0.4
  mass density: 1127.09 ± 0.93 kg/m3
  viscosity: 1.96 ± 0.035 mPa·s
[2]; 338.15 K, w1 = 0.05
  mass density: 998.13 ± 0.76 kg/m3
  viscosity: 0.5008 ± 0.016 mPa·s
[2]; 338.15 K, w1 = 0.1
  mass density: 1015.87 ± 0.77 kg/m3
  viscosity: 0.593 ± 0.017 mPa·s
[2]; 338.15 K, w1 = 0.2
  mass density: 1051.56 ± 0.81 kg/m3
  viscosity: 0.8345 ± 0.021 mPa·s
[2]; 338.15 K, w1 = 0.3
  mass density: 1088.2 ± 0.86 kg/m3
  viscosity: 1.361 ± 0.027 mPa·s
[2]; 338.15 K, w1 = 0.4
  mass density: 1123.8 ± 0.91 kg/m3
  viscosity: 1.728 ± 0.032 mPa·s
[2]; 343.15 K, w1 = 0.05
  mass density: 995.35 ± 0.75 kg/m3
  viscosity: 0.4617 ± 0.016 mPa·s
[2]; 343.15 K, w1 = 0.1
  mass density: 1013.04 ± 0.77 kg/m3
  viscosity: 0.5426 ± 0.017 mPa·s
[2]; 343.15 K, w1 = 0.2
  mass density: 1048.61 ± 0.81 kg/m3
  viscosity: 0.7524 ± 0.019 mPa·s
[2]; 343.15 K, w1 = 0.3
  mass density: 1085.34 ± 0.85 kg/m3
  viscosity: 1.203 ± 0.025 mPa·s
[2]; 343.15 K, w1 = 0.4
  mass density: 1120.46 ± 0.9 kg/m3
  viscosity: 1.536 ± 0.029 mPa·s
